Test results from PubChem BioAssay (NCI).
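Tested at 5 concentrations; 48 h exposure; 96-well plates; endpoints linearly interpolated, else capped at highest concentration. Abbreviation: GI50, concentration required for 50% inhibition of growth. At the TGI there is no net growth.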

What was measured:
Test in all cases: NCI tumour cell line growth inhibition, 48 h
HCT-116 colon = tested on: HCT-116 colon
OVCAR-8 ovarian = tested on: OVCAR-8 ovarian
A549 NSCLC = tested on: A549 NSCLC
LOX IMVI melanoma = tested on: LOX IMVI melanoma
HCT-15 colon = tested on: HCT-15 colon
KM12 colon = tested on: KM12 colon
UO-31 renal = tested on: UO-31 renal
RPMI-8226 leukemia = tested on: RPMI-8226 leukemia

Row | SMILES | GI50 (HCT-116 colon) | TGI (HCT-116 colon) | GI50 (OVCAR-8 ovarian) | TGI (OVCAR-8 ovarian) | GI50 (A549 NSCLC) | TGI (A549 NSCLC) | GI50 (LOX IMVI melanoma) | TGI (LOX IMVI melanoma) | GI50 (HCT-15 colon) | TGI (HCT-15 colon) | GI50 (KM12 colon) | TGI (KM12 colon) | GI50 (UO-31 renal) | TGI (UO-31 renal) | GI50 (RPMI-8226 leukemia) | TGI (RPMI-8226 leukemia)
1 | COc1ccc(-c2cs/c(=N\N=C\c3ccc(O)cc3O)n2/N=C/c2ccc(O)cc2O)cc1 | 1.57 µM | 3.04 µM | 2.47 µM | 6.63 µM | 1.89 µM | 4.62 µM | 1.76 µM | 3.68 µM | 1.73 µM | 5.12 µM | 1.98 µM | 4.6 µM | 1.5 µM | 3.2 µM | – | –
2 | CCC(O)c1ccc(Br)cc1NC(=O)c1cccc(Cl)c1 (stereo unspecified) | 14.2 µM | 46.6 µM | 23.7 µM | 77.9 µM | 19.5 µM | > 100 µM | 9.03 µM | 25 µM | 23.1 µM | > 100 µM | 13 µM | 29.6 µM | 10.8 µM | > 100 µM | 11.4 µM | 48.3 µM
3 | NS(=O)(=O)c1ccc(-n2nc3c(c2-c2ccc(Cl)cc2)Cc2ccccc2-3)cc1 | 4.06 µM | 21.3 µM | 21.6 µM | 44 µM | 37.8 µM | > 100 µM | 19 µM | 37.4 µM | 19.7 µM | 38.4 µM | 19.9 µM | 52.8 µM | 9.57 µM | 21.8 µM | 10.4 µM | 24.7 µM
4 | CN(CCCCCl)P(=O)(OCCS(=O)(=O)CC(NC(=O)CCC(N)C(=O)O)C(=O)NC(C(=O)O)c1ccccc1)OCC1OC(n2ccc(N)nc2=O)C(F)(F)C1O (stereo unspecified) | 0.0378 µM | > 100 µM | < 0.0172 µM | > 100 µM | 0.125 µM | > 100 µM | 0.467 µM | > 100 µM | 8.92 µM | > 100 µM | 14.6 µM | > 100 µM | < 0.0213 µM | 2.7 µM | 0.901 µM | > 78.1 µM
5 | CC(C)c1c(-c2ccccc2)nc2c(C#N)c[nH]n2c1=O | 30.5 µM | > 100 µM | 32.2 µM | > 100 µM | 33.4 µM | > 100 µM | 29 µM | > 91.2 µM | 31.8 µM | > 100 µM | 31.7 µM | > 100 µM | 26.5 µM | 98.6 µM | 24.2 µM | 67.7 µM
6 | O=C(Nc1cc(C(F)(F)F)ccc1Cl)c1ccc(NC2=C(Cl)C(=O)N(Cc3ccccc3)C2=O)cc1 | 17.2 µM | > 100 µM | 14.6 µM | 41.3 µM | > 100 µM | > 100 µM | 4.11 µM | > 100 µM | 13.2 µM | > 100 µM | 23.7 µM | 74.9 µM | – | – | 2.65 µM | 8.51 µM
7 | C=CCn1c(C)nc2ccc(Nc3nc(Nc4ccc(F)cc4)nc4ccccc34)cc21 | 2.41 µM | 7.67 µM | 3.05 µM | 13.6 µM | 4.18 µM | 22.2 µM | 4.36 µM | 23 µM | 2.84 µM | 10.4 µM | 4.07 µM | 16.4 µM | 4.53 µM | 19.3 µM | 1.85 µM | 4.57 µM
8 | O=C1/C(=C/c2cccc(Br)c2)COc2ccc(O)cc21 | 1.45 µM | 2.99 µM | 3.4 µM | 12.9 µM | 4.12 µM | 16.5 µM | 1.7 µM | 3.41 µM | 1.95 µM | 7.88 µM | 1.75 µM | 3.74 µM | 1.51 µM | 3.46 µM | 0.26 µM | 0.761 µM
9 | COc1cccc(/C(C#N)=C/c2nc3c(N4CCOCC4)nc(Cl)nc3n2C)c1 | 0.171 µM | 0.433 µM | 1.01 µM | 3.07 µM | 1.57 µM | 4.23 µM | 1.01 µM | 2.25 µM | 0.312 µM | 1.3 µM | 1.77 µM | 3.53 µM | 0.48 µM | 1.92 µM | 0.376 µM | 1.87 µM
10 | O=C(O)c1ccc(NCn2nc(-c3ccccc3O)oc2=S)cc1 | 23.7 µM | 57.3 µM | > 100 µM | > 100 µM | 42.3 µM | > 100 µM | 19.9 µM | 38.3 µM | 24.9 µM | 57.5 µM | > 100 µM | > 100 µM | > 100 µM | > 100 µM | > 100 µM | > 100 µM
11 | COc1cc(C2SCCCCCCCCCCSC(c3ccc(O)c(OC)c3)SCCCCCCCCCCS2)ccc1O (stereo unspecified) | – | > 100 µM | – | > 100 µM | – | > 100 µM | – | > 100 µM | – | > 100 µM | – | > 100 µM | – | > 100 µM | – | > 100 µM
12 | C[C@@H]1C[C@H](C)CN(S(=O)(=O)c2ccc3c(NO)c4ccc(S(=O)(=O)N5C[C@H](C)C[C@H](C)C5)cc4c(N=O)c3c2)C1 | 0.032 µM | 0.115 µM | 0.232 µM | 0.527 µM | 0.17 µM | 0.327 µM | 0.105 µM | 0.242 µM | 0.0717 µM | 0.211 µM | 0.0833 µM | 0.257 µM | 0.167 µM | 0.338 µM | 0.24 µM | 0.669 µM
13 | COC(=O)c1cc2c3ccccc3n3c(=O)c4cc5ccc(N(S(=O)(=O)c6ccc(C)cc6)S(=O)(=O)c6ccc(C)cc6)cc5nc4c(n1)c23 | – | – | > 100 µM | > 100 µM | > 100 µM | > 100 µM | 48.5 µM | > 100 µM | > 100 µM | > 100 µM | > 100 µM | > 100 µM | > 100 µM | > 100 µM | 43.7 µM | > 100 µM
14 | COc1ccc2cc(/C=C/C(=O)c3ccc(Cl)cc3Cl)ccc2c1 | 16.9 µM | 46 µM | 26.6 µM | 75.4 µM | 26 µM | > 100 µM | 24.1 µM | 60.4 µM | 31 µM | > 100 µM | 29 µM | 85.4 µM | 36.6 µM | > 100 µM | 16.2 µM | 47.2 µM
15 | CC(=O)c1ccc2c(c1)C1C=CCC1[C@H](c1cc3c(cc1Br)OCO3)N2 (stereo partly specified) | 1.18 µM | 14.3 µM | 1.63 µM | 13 µM | 2.03 µM | > 34.4 µM | 1.31 µM | 2.62 µM | 1.24 µM | 20.6 µM | 0.581 µM | 11.3 µM | 1.89 µM | 34.9 µM | 0.58 µM | 13.2 µM
